This is an account of results in patent US20240197588A1, “ANTIMICROBIAL COMPOSITION” (Conopco, Inc., d/b/a UNILEVER, priority 2021, published 2024).

Series [1] is described as follows: Physical state of detackifying agent at room temperature. It counts as physicochemical. The source says: RT in Table 4 refers to room temperature.
Series [2] is described as follows: Solubility of oil (detackifying agent) in 75/25 EtOH/Water. Conditions: neat detackifying agent.
Description: (§1) Detackifying agents desirable for use in the antimicrobial composition disclosed herein must meet the following criteria: the detackifying agent must be liquid, the detackifying agent must be soluble in at least a 75/25 or higher ratio of ethanol to water (EtOH/Water), which is to be reflective of solubility in the final composition resulting in a clear (i.e., transparent) final antimicrobial composition, and the detackifying agent must have no solvency for water.
A short description of series [3]: Water solubility in oil (solvency of detackifying agent for water). As to conditions: neat detackifying agent.
Description: as §1
Finally, the preferred detackifying agent must itself not have solvency for water such that during application and on drying as the ethanol and water evaporate, the water is also allowed to quickly evaporate leaving behind only the oil and any skin benefit actives/moisturizers if present.

For the compound PPG15 Stearyl ether, in series [1], the “Oil (liquid or solid at RT)” value is reported as “Liquid”. Also, the “Solubility in 75/25 EtOH/Water” value in series [2] is recorded as >30%. For the same compound, the “Water solubility in detackifying agent” value in series [3] was “No”.
As for `CCCCCCCCCCCCOC(=O)C(C)O` (stereo not shown) [Lauryl lactate], the “Oil (liquid or solid at RT)” value in series [1] was “Liquid”. Further, the “Solubility in 75/25 EtOH/Water” value in series [2] is >30%. In addition, in series [3], the “Water solubility in detackifying agent” value is “No”.
The corresponding values for Dicapryl maleate are “Liquid”, <10% and “No”.
For the compound `CCCCC(CC)COC(=O)CCCCC(=O)OCC(CC)CCCC` (stereo not shown) [Diethylhexyl adipate], in series [1], the “Oil (liquid or solid at RT)” value was “Liquid”. In addition, the “Solubility in 75/25 EtOH/Water” value in series [2] is given as <10%. The “Water solubility in detackifying agent” value in series [3] is reported as “No”.
As for `CC(C)OC(=O)CCCCCCCCC(=O)OC(C)C` [Diisopropyl sebacate], the “Oil (liquid or solid at RT)” value in series [1] is given as “Liquid”.
For `CCCCC(CC)COC(=O)CC(O)C(=O)OCC(CC)CCCC` (stereo not shown) [Diethyl hexyl malate], the “Oil (liquid or solid at RT)” value in series [1] is “Liquid”.
With `CCCCC(CC)COC(=O)CCCCCCCCC(=O)OCC(CC)CCCC` (stereo not shown) [Diethyl hexyl sebacate], the “Oil (liquid or solid at RT)” value in series [1] is listed as “Liquid”.
As to `CC(C)OC(=O)CCCCC(=O)OC(C)C` [Disopropyl adipate], in series [1], the “Oil (liquid or solid at RT)” value is “Liquid”. The “Solubility in 75/25 EtOH/Water” value in series [2] is >30%. Moreover, the “Water solubility in detackifying agent” value in series [3] was “No”.
`CC(C)CCCCCCCCCCCCCCCO` [Isostearyl alcohol]: the “Oil (liquid or solid at RT)” value in series [1] was “Liquid”.
